Assay results taken from ChEMBL document CHEMBL4811222, “Antitumor Activity of Asperphenin B by Induction of Apoptosis and Regulation of Glyceraldehyde-3-phosphate Dehydrogenase in Human Colorectal Cancer Cells” (J Nat Prod, 2021).
Active and inactive are the calls of the source. No cut-off for these calls is given here.

Legend:
HCT-116 [1] = test: Antiproliferative activity against human HCT-116 cells assessed as inhibition of cell growth incubated for 72 hrs by SRB assay; type: functional, cell-based; conditions: HCT-116, 72 h
LS174T = test: Antiproliferative activity against human LS174T cells assessed as inhibition of cell growth incubated for 72 hrs by SRB assay; type: functional, cell-based
CCD-841CoN = test: Antiproliferative activity against human CCD-841CoN cells assessed as inhibition of cell growth incubated for 72 hrs by SRB assay; type: cell-based
RKO [2] = test: Induction of cell cycle arrest in human RKO cells assessed as accumulation at G0/G1 phase at 1.25 uM after 24 hrs by RNase A/propidium iodide staining based flow cytometric analysis (reference value: 51.49 %); type: functional
RKO [3] = test: Induction of cell cycle arrest in human RKO cells assessed as accumulation at S phase at 1.25 uM after 24 hrs by RNase A/propidium iodide staining based flow cytometric analysis (reference value: 24.20 %); type: functional
RKO [4] = test: Induction of cell cycle arrest in human RKO cells assessed as accumulation at G2/M phase at 1.25 uM after 24 hrs by RNase A/propidium iodide staining based flow cytometric analysis (reference value: 24.38 %); type: functional
RKO [5] = test: Induction of cell cycle arrest in human RKO cells assessed as accumulation at sub-G1 phase at 2.5 uM after 24 hrs by RNase A/propidium iodide staining based flow cytometric analysis (reference value: 0.40 %); type: functional
RKO [6] = test: Induction of cell cycle arrest in human RKO cells assessed as accumulation at G0/G1 phase at 2.5 uM after 24 hrs by RNase A/propidium iodide staining based flow cytometric analysis (reference value: 51.49 %); type: functional
RKO [7] = test: Induction of cell cycle arrest in human RKO cells assessed as accumulation at S phase at 2.5 uM after 24 hrs by RNase A/propidium iodide staining based flow cytometric analysis (reference value: 24.20 %); type: functional
RKO [8] = test: Induction of cell cycle arrest in human RKO cells assessed as accumulation at G0/G1 phase at 2.5 uM after 12 hrs by RNase A/propidium iodide staining based flow cytometric analysis (reference value: 60.58 %); type: functional
RKO [9] = test: Induction of cell cycle arrest in human RKO cells assessed as accumulation at S phase at 2.5 uM after 12 hrs by RNase A/propidium iodide staining based flow cytometric analysis (reference value: 13.33 %); type: functional
RKO [10] = test: Induction of cell cycle arrest in human RKO cells assessed as accumulation at G0/G1 phase at 2.5 uM after 24 hrs by RNase A/propidium iodide staining based flow cytometric analysis (reference value: 60.58 %); type: functional
RKO [11] = test: Induction of cell cycle arrest in human RKO cells assessed as accumulation at S phase at 2.5 uM after 24 hrs by RNase A/propidium iodide staining based flow cytometric analysis (reference value: 13.33 %); type: functional
RKO [12] = test: Induction of cell cycle arrest in human RKO cells assessed as accumulation at G2/M phase at 2.5 uM after 24 hrs by RNase A/propidium iodide staining based flow cytometric analysis (reference value: 24.63 %); type: functional
RKO [13] = test: Induction of cell cycle arrest in human RKO cells assessed as accumulation at G2/M phase at 2.5 uM after 36 hrs by RNase A/propidium iodide staining based flow cytometric analysis (reference value: 24.63 %); type: functional
RKO [14] = test: Induction of cell cycle arrest in human RKO cells assessed as accumulation at sub-G1 phase at 2.5 uM after 48 hrs by RNase A/propidium iodide staining based flow cytometric analysis (reference value: 0.89 %); type: functional
RKO [15] = test: Induction of cell cycle arrest in human RKO cells assessed as accumulation at S phase at 2.5 uM after 48 hrs by RNase A/propidium iodide staining based flow cytometric analysis (reference value: 13.33 %); type: functional
RKO [16] = test: Induction of cell cycle arrest in human RKO cells assessed as accumulation at G2/M phase at 2.5 uM after 48 hrs by RNase A/propidium iodide staining based flow cytometric analysis (reference value: 24.63 %); type: functional
RKO [17] = test: Antitumor activity against human RKO cells implanted in BALB/c nude mouse assessed as inhibition of tumor growth at 4 mg/kg, ip administered three times per week for 21 days and measured every 3 to 4 days by electronic caliper method; type: functional; conditions: 504 h, time 21 day, read-out: TGI
RKO [18] = test: Induction of apoptosis in human RKO cells assessed as increase in cleaved caspase 9 expression at 2.5 uM measured upto 48 hrs by Western blotting analysis; type: functional, cell-based; conditions: time hrs <=48
RKO [19] = test: Induction of apoptosis in human RKO cells assessed as total apoptotic cells at 1.25 uM after 48 hrs by Annexin V/PI staining based flow cytometric analysis; type: functional
RKO [20] = test: Induction of apoptosis in human RKO cells assessed as modulation of survivin expression level after 48 hrs by Western blotting analysis; type: functional, cell-based; conditions: dose 2.5-10 µM
RKO [21] = test: Induction of apoptosis in human RKO cells assessed as modulation of cleaved caspase 9 expression level after 48 hrs by Western blotting analysis; type: functional, cell-based; conditions: dose 2.5-10 µM
RKO [22] = test: Induction of apoptosis in human RKO cells assessed as modulation of cleaved caspase 3 expression level after 48 hrs by Western blotting analysis; type: functional, cell-based; conditions: dose 2.5-10 µM
RKO [23] = test: Induction of apoptosis in human RKO cells assessed as modulation of cleaved PARP expression level after 48 hrs by Western blotting analysis; type: functional, cell-based; conditions: dose 2.5-10 µM
RKO [24] = test: Induction of E-cadherin expression in human RKO cells after 24 hrs by Western blotting analysis; type: functional, cell-based
HCT-116 [25] = test: Downregulation of N-Cadherin expression in […] at 3 to 6 uM after 24 hrs by Western blotting analysis; type: functional, cell-based; conditions: dose 3-6 µM
RKO [26] = test: Antitumor activity against human RKO cells implanted in BALB/c nude mouse assessed as inhibition of tumor growth at 8 mg/kg, ip administered three times per week for 21 days and measured every 3 to 4 days by electronic caliper method; type: functional; conditions: 504 h, time 21 day, read-out: TGI
[27] = Toxicity in BALB/c nude mouse implanted with human RKO cells assessed as change in body weight at 4 to 8 mg/kg, ip administered three times per week for 21 days; type: organism-based; conditions: in vivo, 504 h, dose 4-8 mg/kg, time 21 day
RKO [28] = test: Antitumor activity against human RKO cells implanted in ip dosed BALB/c nude mouse assessed as suppression of GAPDH expression in tumor lysates administered three times per week for 21 days by Western blotting analysis; type: functional, organism-based; conditions: Neoplasm, time 21.0 day
RKO [29] = test: Antitumor activity against human RKO cells implanted in BALB/c nude mouse assessed as suppression of Ki67 expression level in tumor lysates at 4 to 8 mg/kg, ip administered three times per week for 21 days by Western blotting analysis; type: functional, organism-based; conditions: Neoplasm, dose 4-8 mg/kg, time 21.0 day

IC50 (HCT-116 [1]): 3.12 µM
SMILES: CCCCCCCCC[C@@H](O)CC(=O)N[C@@H](CC(N)=O)C(=O)N[C@@H](CCC(N)=O)C(=O)N[C@H](CC(=O)c1cc(C)cc(O)c1C(=O)c1c(O)cccc1O)CC(C)C
IC50 (LS174T): 6.36 µM | IC50 (CCD-841CoN): 47.2 µM | Activity (RKO [2]): 46.96% | Activity (RKO [3]): 23.61% | Activity (RKO [4]): 29.42% | Activity (RKO [5]): 0.56% | Activity (RKO [6]): 32.4% | Activity (RKO [7]): 23.35% | Activity (RKO [8]): 54.66% | Activity (RKO [9]): 16.82% | Activity (RKO [10]): 33.93% | Activity (RKO [11]): 16.64% | Activity (RKO [12]): 48.54% | Activity (RKO [13]): 63.62% | Activity (RKO [14]): 17.94% | Activity (RKO [15]): 10.43% | Activity (RKO [16]): 41.66% | inhibition in vivo at 4 mg/kg (RKO [17]): 32.8% | Activity (RKO [18]): Active | Activity (RKO [19]): 7.85% | Activity (RKO [20]): Dose-Dependent Effect | Activity (RKO [21]): Dose-Dependent Effect | Activity (RKO [22]): Dose-Dependent Effect | Activity (RKO [23]): Dose-Dependent Effect | Activity (RKO [24]): Active | Activity (HCT-116 [25]): Active | inhibition in vivo at 8 mg/kg (RKO [26]): 57.1% | Activity [27]: Non-Toxic | Activity (RKO [28]): Dose-Dependent Effect | Activity (RKO [29]): Active
